Assays:
[1] = Acute Oral Toxicity (7 day observation in the mouse); format: in vivo
[2] = Cytotoxicity (MEM Elution) of organic antimicrobial valve material; format: cell-based

SMILES | Acute Oral Toxicity (7 day observation in the mouse) [1] | Cytotoxicity (MEM Elution) on the device with valve material [2] | Cytotoxicity (MEM Elution) on the valve material alone ([2]; valve material alone)
CCCCOC(=O)c1ccc(O)cc1 [Butyl Paraben, butyl p-hydroxy Benzoate] | Nontoxic | Nontoxic | 
Oc1cc(Cl)ccc1Oc1ccc(Cl)cc1Cl [Triclosan, 2,4,4′-trichloro-2′-hydroxydiphenyl ether] | Nontoxic | Nontoxic | Toxic
